Legend:
Type in all cases: cell-based
[1] = system: MiaPaCa-2 pancreatic cancer cell line; experiment: [3H]-thymidine incorporation (DNA synthesis), MiaPaCa-2; design: effect on proliferation (thymidine incorporation): dose or concentration left out as unconfirmed
Protocol: (§1) Cell culture. The following pancreatic cancer cell lines were used: MiaPaCa-2 and PANC-1 (poorly-differentiated); Capan-1 and Capan-2 (well-differentiated); and HPAF and AsPC-1 (pleomorphic). These were purchased from American Type Culture Collection (Rockville, Md.). PANC-1 and MiaPaCa-2 were grown in DMEM media; HPAF and AsPC-1 were grown in MEM media; and Capan-1 and Capan-2 were grown in-McCoy's media. Media were supplemented with 10% FBS, and the cells were grown as monolayers in a humidified atmosphere of […] and 5% CO2 at 37° C. The cells were regularly seeded into 75 cm^2 flask with media changed every other day. For experiments, cells were grown to 80% confluence, digested with trypsin-EDTA, and plated either in 12 or 24-well plates at a concentration of 50,000/ml, as appropriate.
(§2) DNA synthesis by [^3H]-Thymidine incorporation. Cells were plated in 12 or 24-well plates. After reaching 70% confluence, they were incubated in serum-free media for 24 hours, which was then replaced with fresh serum-free media with or without the appropriate concentration of leukotriene B4 receptor antagonist LY293111 (62.5-1000 nM), LTB4 (100-400 nM), or both. After the appropriate period of culture, cellular DNA synthesis was assayed by adding 0.5 μCi/well of [^3H]-methyl-thymidine and incubating for another 2 hours. Then, the cells were washed twice with PBS, fixed with 10% trichloroacetic acid (“TCA”) for 30 minutes, and solubilized by adding 0.4 M NaOH to each well. Radioactivity, indicating incorporation of ^3H-thymidine into DNA, was measured by adding a scintillation cocktail and counting on a scintillation counter (LKB RackBeta, Wallac, Turku, Finland)

[2] = system: HPAF pancreatic cancer cell line; experiment: [3H]-thymidine incorporation (DNA synthesis), HPAF; design: effect on proliferation (thymidine incorporation): dose or concentration left out as unconfirmed
Protocol: as §1, §2

[3] = system: Bcl-2 in MCF-7 breast cancer cells; experiment: Bcl-2 expression by western blotting; settings: MCF-7, LTB4 100 nM

Compound | increase of proliferation compared with control ([1]; MiaPaCa-2 (FIG. 6A), 100 nM LTB4, 24 hours) | thymidine incorporation compared with control ([1]; MiaPaCa-2, LTB4 100 nM for 72 hours) | effect on proliferation (thymidine incorporation) ([1]; MiaPaCa-2, concentration and time-dependent, P<0.0001) | increase of proliferation compared with control ([2]; HPAF (FIG. 6B), 100 nM LTB4, 24 hours) | thymidine incorporation compared with control ([2]; HPAF, LTB4 100 nM for 72 hours) | effect on proliferation (thymidine incorporation) ([2]; HPAF, concentration and time-dependent, P<0.0001) | Bcl-2 expression (western blot) [3] | effect on proliferation (thymidine incorporation) ([1]; MiaPaCa-2, 48 hours, likely a toxic effect, P=0.2316) | effect on proliferation (thymidine incorporation) ([2]; HPAF, 48 hours, likely a toxic effect, P=0.2217)
CCCCC/C=C\C[C@@H](O)/C=C/C=C/C=C\[C@@H](O)CCCC(=O)O [LTB4, Leukotriene B4, reference compound] | 25% | more than doubled | stimulated the proliferation | 25% | more than doubled | stimulated the proliferation | increase expression |  | 
CCCc1c(OCCCCc2nnn[nH]2)ccc(C(C)=O)c1O [LY171883, 1-(2-hydroxy-3-propyl-4-(4-(1H-tetrazol-5-yl)butoxy)phenyl)ethanone, reference compound] |  |  |  |  |  |  |  | only affected proliferation at the highest concentration | only affected proliferation at the highest concentration
